Measured values taken from the supplement of paper PMC10307832.

Experiments:
Experiment in all cases: relative viability (nuclei count vs DMSO), 5 days (fraction); higher = more cells survive
NCI-H2405 = system: NCI-H2405
How it was run: (§1)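 Five library-drug doses in √10 steps were combined with a fixed anchor-drug dose, or a single drug was given alone, by pin tool to lung cancer cell lines in 1536-well plates the day after seeding. Nuclei were stained and counted after 5 days. Relative viability is the nuclei count in treated wells over that in vehicle wells, taken as the median of duplicate plates.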

SW 900 = system: SW 900
How it was run: as §1

A-427 = system: A-427
How it was run: as §1

NCI-H1437 = system: NCI-H1437
How it was run: as §1

NCI-H322M = system: NCI-H322M
How it was run: as §1

RERF-LC-KJ = system: RERF-LC-KJ
How it was run: as §1

SK-LU-1 = system: SK-LU-1
How it was run: as §1

NCI-H23 = system: NCI-H23
How it was run: as §1

H3255 = system: H3255
How it was run: as §1

NCI-H647 = system: NCI-H647
How it was run: as §1

NCI-H2085 = system: NCI-H2085
How it was run: as §1

NCI-H3122 = system: NCI-H3122
How it was run: as §1

NCI-H2347 = system: NCI-H2347
How it was run: as §1

For `Nc1cccc2c1CN(C1CCC(=O)NC1=O)C2=O` (stereo not given) [Lenalidomide] + COc1cc2c(Oc3ccc(NC(=O)C4(C(=O)Nc5ccc(F)cc5)CC4)cc3F)ccnc2cc1OCCCN1CCOCC1 [Foretinib] (partner 0.25 µM), the relative viability (NCI-H2405; first compound 0.8 µM) was 0.951, the relative viability (NCI-H2405; first compound 2.53 µM) was 1.11 and the relative viability (NCI-H2405; first compound 8 µM) was 1.01. It also gave a relative viability (SW 900; first compound 0.253 µM) of 0.785, a relative viability (SW 900; first compound 2.53 µM) of 0.879 and a relative viability (SW 900; first compound 8 µM) of 0.884. For the same compound, the relative viability (A-427; first compound 0.253 µM) was 1.11, the relative viability (A-427; first compound 0.8 µM) was 0.93 and the relative viability (A-427; first compound 2.53 µM) was 1.13. For the same compound, the relative viability (A-427; first compound 8 µM) was 1.11, the relative viability (NCI-H1437; first compound 0.253 µM) was 1.34 and the relative viability (NCI-H1437; first compound 0.8 µM) was 1.25. It also gave a relative viability (NCI-H1437; first compound 2.53 µM) of 1.32, a relative viability (NCI-H1437; first compound 8 µM) of 1.46 and a relative viability (NCI-H322M; first compound 0.253 µM) of 0.962. The relative viability (NCI-H322M; first compound 0.8 µM) was 1.05, the relative viability (NCI-H322M; first compound 2.53 µM) was 1.11 and the relative viability (NCI-H322M; first compound 8 µM) was 0.902. For the same compound, the relative viability (RERF-LC-KJ; first compound 0.253 µM) was 0.891, the relative viability (RERF-LC-KJ; first compound 0.8 µM) was 0.886 and the relative viability (RERF-LC-KJ; first compound 2.53 µM) was 0.962. The relative viability (RERF-LC-KJ; first compound 8 µM) was 0.793, the relative viability (SK-LU-1; first compound 0.253 µM) was 0.71 and the relative viability (SK-LU-1; first compound 0.8 µM) was 0.727. It also gave a relative viability (SK-LU-1; first compound 2.53 µM) of 1.02, a relative viability (SK-LU-1; first compound 8 µM) of 0.802 and a relative viability (NCI-H23; first compound 0.253 µM) of 0.926. It also gave a relative viability (NCI-H23; first compound 0.8 µM) of 1.13, a relative viability (NCI-H23; first compound 2.53 µM) of 0.847 and a relative viability (NCI-H23; first compound 8 µM) of 1.03. The relative viability (H3255; first compound 0.253 µM) was 0.733, the relative viability (H3255; first compound 0.8 µM) was 0.825 and the relative viability (H3255; first compound 2.53 µM) was 0.95. For the same compound, the relative viability (H3255; first compound 8 µM) was 0.727, the relative viability (NCI-H647; first compound 0.253 µM) was 0.856 and the relative viability (NCI-H647; first compound 0.8 µM) was 1.12. For the same compound, the relative viability (NCI-H647; first compound 2.53 µM) was 1.21, the relative viability (NCI-H647; first compound 8 µM) was 1.11 and the relative viability (NCI-H2085; first compound 0.253 µM) was 1.04. It also gave a relative viability (NCI-H2085; first compound 0.8 µM) of 1.11, a relative viability (NCI-H2085; first compound 2.53 µM) of 0.929 and a relative viability (NCI-H2085; first compound 8 µM) of 1.07. The relative viability (NCI-H3122; first compound 0.253 µM) was 0.98, the relative viability (NCI-H3122; first compound 0.8 µM) was 1.04 and the relative viability (NCI-H3122; first compound 2.53 µM) was 0.915. The relative viability (NCI-H3122; first compound 8 µM) was 1.02, the relative viability (NCI-H2347; first compound 0.253 µM) was 0.881 and the relative viability (NCI-H2347; first compound 0.8 µM) was 1.05. It also gave a relative viability (NCI-H2347; first compound 2.53 µM) of 0.956 and a relative viability (NCI-H2347; first compound 8 µM) of 0.364.
